# Experimental data as given in US5747523A, “Substituted ethyl α,α-diarylmethyl ether derivatives” (Guilford Pharmaceuticals Inc., priority 1996, dated 1998).
# Legend:
# [1] = target: T1, human dopamine transporter (Homo sapiens, UniProt Q01959); assay: uptake to binding ratio (Kiuptake/Kibinding); settings: hdat cho cells
# T1 construct: expressed in transfected cells
# Description: The experimental procedures for the assay of compounds are as follows.
# All assays were performed using Chinese Hamster Ovary cells stably expressing the human dopamine transporter cDNA (HDAT cells). hDAT cells were distributed in 96-well plates and grown 3 to 4 days to confluency (~10^5 cells/well) in Ham's F12 medium containing 10% fetal calf serum.
# [2] = target: T2, cocaine binding site of the human dopamine transporter (Homo sapiens, UniProt Q01959); assay: [3H]CFT binding (cocaine analogue displacement at the cocaine site of DAT); settings: hDAT CHO cells; 5 nM [3H]CFT; 2 h pre-incubation at 37° C., 6 min at room temperature
# T2 construct: expressed in transfected cells
# T2 sequence (Q01959 whole entry): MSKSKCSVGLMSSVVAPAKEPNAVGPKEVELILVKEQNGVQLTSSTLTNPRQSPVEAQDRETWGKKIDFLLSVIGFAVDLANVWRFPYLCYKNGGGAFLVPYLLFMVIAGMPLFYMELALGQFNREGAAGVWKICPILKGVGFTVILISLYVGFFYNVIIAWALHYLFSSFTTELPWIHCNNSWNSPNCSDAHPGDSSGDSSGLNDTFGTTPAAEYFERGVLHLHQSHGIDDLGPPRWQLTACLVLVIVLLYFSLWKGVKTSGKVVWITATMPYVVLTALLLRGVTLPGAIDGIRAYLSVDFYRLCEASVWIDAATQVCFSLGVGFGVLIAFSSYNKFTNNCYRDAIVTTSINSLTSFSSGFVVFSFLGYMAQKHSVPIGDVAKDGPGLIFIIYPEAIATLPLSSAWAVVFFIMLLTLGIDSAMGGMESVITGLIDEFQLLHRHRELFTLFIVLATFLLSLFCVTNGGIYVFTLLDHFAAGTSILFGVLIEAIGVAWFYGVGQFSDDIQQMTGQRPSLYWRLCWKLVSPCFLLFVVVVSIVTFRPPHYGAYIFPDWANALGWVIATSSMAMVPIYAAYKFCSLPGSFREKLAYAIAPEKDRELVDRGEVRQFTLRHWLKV
# [3] = target: T1, human dopamine transporter; assay: [3H]dopamine uptake inhibition in hDAT cells; assay type: cell-based; settings: hDAT CHO cells; 100 nM [3H]dopamine; 2 h pre-incubation at 37° C., 6 min at room temperature; read-out: Effect on Dopamine Uptake (Kiuptake)
# MPTP induced toxicity = settings: mice; literature; cited from earlier work
# [4] = system: mesolimbic dopamine neurons; settings: rat; literature; cited from earlier work
# T1 sequence (Q01959 whole entry): as above
structure (smiles),measurement,setting,value
Fc1ccc(C(OCCN2CCCCC2)c2ccc(F)cc2)cc1 [1-[2-[Bis(4-fluorophenyl)methoxy]ethyl]piperidine],Uptake to Binding Ratio (Kiuptake/Kibinding),[1],2.896
same,Ki,[2],211 nM
same,Ki,[3],609 nM
Fc1ccc(C(OCCN2CCCC2)c2ccc(F)cc2)cc1 [1-[2-[Bis(4-fluorophenyl)methoxy]ethyl]pyrrolidine],Uptake to Binding Ratio (Kiuptake/Kibinding),[1],2.623
same,Ki,[2],361 nM
same,Ki,[3],947 nM
"CS(=O)(=O)O.CS(=O)(=O)O.Fc1ccc(CCCN2CCN(CCOC(c3ccc(F)cc3)c3ccc(F)cc3)CC2)cc1 [GBR 13,098]",preventing MPTP induced toxicity,MPTP induced toxicity,effective at preventing MPTP induced toxicity
Fc1ccc(C(OCCN2CCN(CCCc3ccccc3)CC2)c2ccc(F)cc2)cc1 [GBR 12909],attenuation of cocaine-induced activation of mesolimbic dopamine neurons,[4],attenuate cocaine-induced activation of mesolimbic dopamine neurons
